# Assays:
# [1] = 275-day anaerobic biodegradation test (modified ISO 11734)
# Text: The term “biodegradation rate” as used herein for drilling fluids and drill cuttings is in connection with the method for performing the 275-day anaerobic biodegradation test and is defined in Federal Register, Part IV Environmental Protection Agency, 40 CFR Parts 9 and […] entitled “Effluent Limitations Guidelines and New Source Performance Standards for the Oil and Gas Extraction Point Source Category”, Fed. Reg. Vol. 66, No. 14, Jan. 22, 2001, Appendix 4 to Subpart A of Part 435, incorporated herein by reference. The 275-day anaerobic biodegradation test described in Appendix 4 to Subpart A of Part 435 is based on a modification of ISO Standard No. 11734:1995 (also incorporated herein by reference) for use in a marine environment.
# Pour point (ASTM D97) = format: physicochemical
# Text: The phrase “pour point” refers to the lowest temperature at which a fluid will pour or flow. (See, e.g., ASTM International Standard Test Method D97). The results are reported in degrees Celsius. Many commercial base oils have specifications for pour point. When base oils have low pour points, the base oils are also likely to have other good low temperature properties, such as low cloud point, and low cold flow viscosity.
# Flash point = format: physicochemical
# [2] = Kinematic viscosity (ASTM D445-06); format: physicochemical
# Protocol: The phrase “kinematic viscosity” refers to a measurement of the resistance to the flow of a fluid. Many base oils, drilling fluid compositions made from them, and the correct operation of equipment depends upon the appropriate viscosity of the fluid being used. Kinematic viscosity is determined by ASTM D445-06. The results are reported in mm^2/s or centistoke. The term “centistoke,” abbreviated “cSt,” is a unit for kinematic viscosity of a fluid (e.g., a drilling fluid), wherein 1 centistoke equals 1 millimeter squared per second (1 cSt=1 mm^2/s). It is also the ratio of the dynamic viscosity of a fluid to the fluid density. See, e.g., ASTM Standard Guide and Test Methods D 2270-04, D 445-06, D 6074, and D 2983.
# Density = format: physicochemical
# Leptocheirus plumulosus = assay: 10-day sediment toxicity test (EPA Method 1644); format: in vivo
# Text: The term “sediment toxicity” as used herein for drilling fluids and drill cuttings refers to EPA Method 1644: “Method for Conducting a Sediment Toxicity Test with Leptocheirus plumulosus and Non-Aqueous Drilling Fluids or Synthetic-Based Drilling Muds” and sediment preparation procedures specified in EPA Method 1646. EPA Method 1644 is published in “Analytic Methods for the Oil and Gas Extraction Point Source Category.” The 10-day Leptocheirus plumulosus toxicity test characterizing the sediment toxicity according to BAT (“Best Available Technology Economically Achievable) effluent limitations and NSPS (“New Source Performance Standards”) means the concentration (milligrams/kilogram dry sediment) of the base fluid in sediment that is lethal to 50 percent of the Leptocheirus plumulosus test organisms exposed to that concentration of the base fluids after ten days of constant exposure. The test is defined in ASTM Standard No. E1367-03 (2008) which is incorporated herein by reference.
structure (smiles),measurement,setting,value
C=CCCCCCCCCCCCCCC [1-hexadecene],275 Day Anaerobic Biodegradation % Compliance Ratio (Ref Fluid/Test Fluid),"[1]; 275 day, ratio reference fluid/test fluid, <1 passes",0.8
same,EPA requirement in the 275 day anaerobic biodegradation test,[1]; versus C1618 IO standard,consistently passes
same,Pour Point,Pour point (ASTM D97); Table 2 and text,4 °C
same,Pour Point,"Pour point (ASTM D97); Table 2 and text, listed as 1-hexadecene",+4 °C
same,Pour Point,"Pour point (ASTM D97); Table 3, blends by ratio C16 unbranched isomerized olefin to 1-hexadecene",4 deg C.
same,Depression in Pour Point Compared to 1-hexadecene,"Pour point (ASTM D97); Table 3, compared to 1-hexadecene",0 deg C.
same,Flash Point,Flash point,125 °C
same,Kinematic Viscosity at 40° C.,[2],2.4 cSt
same,Density,Density,0.785 g/cc
same,Sediment Toxicity L. plumulosus 10 day LC50 Compliance Ratio (Ref Fluid/Test Fluid),"Leptocheirus plumulosus; 10 day, ratio reference fluid/test fluid, <1 passes",0.35
same,EPA requirement in the 10-day sediment toxicity test,Leptocheirus plumulosus; in vivo,consistently passes
